Reference: patent publication US9873693B2 (Sunesis Pharmaceuticals, Inc., priority 2006, dated 2018)

Molecular target: dephosphorylated PDK1 (Homo sapiens (Human), UniProt O15530)
Test: PDK1 kinase assay (coupled PDK1/AKT/FAM-crosstide, IMAP)
Type: biochemical
Conditions: 25 nM un-phosphorylated PDK1, 24 μM ATP; read-out: Inhibition of dephospo-PDK1 in vitro IC50
Method in brief: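 The FAM-crosstide phosphorylation readout was IMAP polarization (ex 485/em 530 nm, 2 h binding), with 4-parameter fits of ΔmP data. The reaction ran 30 min at 25 °C with 24 μM ATP, and contained 25 nM phosphatase-treated PDK1 (aa 51–360) plus 30 nM unphosphorylated AKT2-PIFtide and 100 nM substrate. Buffer was 10 mM Tris pH 7.2, 10 mM MgCl2, 0.01% Triton X-100 and 1 mM DTT.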

Sequence of dephosphorylated PDK1 (O15530 51-360): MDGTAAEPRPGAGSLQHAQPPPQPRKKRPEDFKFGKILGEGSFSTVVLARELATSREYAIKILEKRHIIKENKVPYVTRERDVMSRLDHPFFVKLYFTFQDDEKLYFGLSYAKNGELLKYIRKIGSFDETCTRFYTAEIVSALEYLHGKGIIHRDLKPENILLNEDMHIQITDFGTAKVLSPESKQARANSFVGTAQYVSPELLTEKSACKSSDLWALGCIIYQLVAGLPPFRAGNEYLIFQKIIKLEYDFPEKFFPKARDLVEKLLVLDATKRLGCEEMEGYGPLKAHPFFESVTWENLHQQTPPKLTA

**Q.** How did the IC50 turn out when `O=C(NCc1nc(-c2c[nH]c3ncccc23)cs1)c1cccn(Cc2ccc(F)c(F)c2)c1=O` [Cpd 112] was run?
**A.** < 500 nM
